Tested on: K86415-001-R-J1-PDC complex spheroids, viability
Experiment: Anticancer human tumor K86415-001-R-J1-PDC patient-derived lung adenocarcinoma cell line growth inhibition [RAS]
Conditions: for IC50: curve of first compound; for viability, T/C: stronger effect = lower value
Method in brief: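 Multi-cell-type spheroids: tumor cells plus HUVEC endothelial cells and mesenchymal stem cells. RAS-pathway inhibitors were combined with targeted agents, each dosed in half-log steps down from clinical Cmax, or from 10 microM when Cmax was unknown.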
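Also: spheroids exposed to agents for seven days before readout.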

CCc1c2c(nc3ccc(O)cc13)-c1cc3c(c(=O)n1C2)COC(=O)[C@]3(O)CC + C=CC(=O)N1CCN(c2nc(OCC3CCCN3C)nc3c(F)c(-c4nc(N)cc(C)c4C(F)(F)F)c(Cl)cc23)C(C)C1
IC50 (second compound 0.00316 µM): < 0.949 nM
IC50 (second compound 0.01 µM): < 0.949 nM
IC50 (second compound 0.0316 µM): < 0.949 nM
IC50 (second compound 0.1 µM): < 0.949 nM
IC50 (second compound 0.316 µM): < 0.949 nM
IC50 (second compound 1 µM): < 0.949 nM
viability, T/C (second compound 0.00316 µM, first compound 0.000949 µM): 19.9%
viability, T/C (second compound 0.00316 µM, first compound 0.003 µM): 18.5%
viability, T/C (second compound 0.00316 µM, first compound 0.00949 µM): 14.5%
viability, T/C (second compound 0.00316 µM, first compound 0.03 µM): 13.7%
viability, T/C (second compound 0.00316 µM, first compound 0.0949 µM): 8.97%
viability, T/C (second compound 0.00316 µM, first compound 0.3 µM): 4.41%
viability, T/C (second compound 0.01 µM, first compound 0.000949 µM): 11.6%
viability, T/C (second compound 0.01 µM, first compound 0.003 µM): 10.7%
viability, T/C (second compound 0.01 µM, first compound 0.00949 µM): 11.3%
viability, T/C (second compound 0.01 µM, first compound 0.03 µM): 9.32%
viability, T/C (second compound 0.01 µM, first compound 0.0949 µM): 8.86%
viability, T/C (second compound 0.01 µM, first compound 0.3 µM): 4.64%
viability, T/C (second compound 0.0316 µM, first compound 0.000949 µM): 10.1%
viability, T/C (second compound 0.0316 µM, first compound 0.003 µM): 9.35%
viability, T/C (second compound 0.0316 µM, first compound 0.00949 µM): 8.29%
viability, T/C (second compound 0.0316 µM, first compound 0.03 µM): 8.73%
viability, T/C (second compound 0.0316 µM, first compound 0.0949 µM): 8.33%
viability, T/C (second compound 0.0316 µM, first compound 0.3 µM): 4.32%
viability, T/C (second compound 0.1 µM, first compound 0.000949 µM): 8.25%
viability, T/C (second compound 0.1 µM, first compound 0.003 µM): 9.14%
viability, T/C (second compound 0.1 µM, first compound 0.00949 µM): 10.9%
viability, T/C (second compound 0.1 µM, first compound 0.03 µM): 7.98%
viability, T/C (second compound 0.1 µM, first compound 0.0949 µM): 6.67%
viability, T/C (second compound 0.1 µM, first compound 0.3 µM): 3.89%
viability, T/C (second compound 0.316 µM, first compound 0.000949 µM): 10%
viability, T/C (second compound 0.316 µM, first compound 0.003 µM): 9.61%
viability, T/C (second compound 0.316 µM, first compound 0.00949 µM): 9.94%
viability, T/C (second compound 0.316 µM, first compound 0.03 µM): 10.7%
viability, T/C (second compound 0.316 µM, first compound 0.0949 µM): 7.22%
viability, T/C (second compound 0.316 µM, first compound 0.3 µM): 4.36%
viability, T/C (second compound 1 µM, first compound 0.000949 µM): 9.61%
viability, T/C (second compound 1 µM, first compound 0.003 µM): 11%
viability, T/C (second compound 1 µM, first compound 0.00949 µM): 8.27%
viability, T/C (second compound 1 µM, first compound 0.03 µM): 8.66%
viability, T/C (second compound 1 µM, first compound 0.0949 µM): 6.75%
viability, T/C (second compound 1 µM, first compound 0.3 µM): 2.88%

CCC(CC)c1cc(NC2CCC(N)C2)n2nccc2n1 (centres undefined) + C=CC(=O)N1CCN(c2nc(OCC3CCCN3C)nc3c(F)c(-c4nc(N)cc(C)c4C(F)(F)F)c(Cl)cc23)C(C)C1
IC50 (second compound 0.00316 µM): < 31.6 nM
IC50 (second compound 0.01 µM): < 31.6 nM
IC50 (second compound 0.0316 µM): < 31.6 nM
IC50 (second compound 0.1 µM): < 31.6 nM
IC50 (second compound 0.316 µM): < 31.6 nM
IC50 (second compound 1 µM): < 31.6 nM
viability, T/C (second compound 0.00316 µM, first compound 0.0316 µM): 21.7%
viability, T/C (second compound 0.00316 µM, first compound 0.1 µM): 20.9%
viability, T/C (second compound 0.00316 µM, first compound 0.316 µM): 26.4%
viability, T/C (second compound 0.00316 µM, first compound 1 µM): 45.6%
viability, T/C (second compound 0.00316 µM, first compound 3.16 µM): 2.88%
viability, T/C (second compound 0.00316 µM, first compound 10 µM): 3.26%
viability, T/C (second compound 0.01 µM, first compound 0.0316 µM): 13.3%
viability, T/C (second compound 0.01 µM, first compound 0.1 µM): 12.7%
viability, T/C (second compound 0.01 µM, first compound 0.316 µM): 16.9%
viability, T/C (second compound 0.01 µM, first compound 1 µM): 23.3%
viability, T/C (second compound 0.01 µM, first compound 3.16 µM): 2.98%
viability, T/C (second compound 0.01 µM, first compound 10 µM): 2.44%
viability, T/C (second compound 0.0316 µM, first compound 0.0316 µM): 10.7%
viability, T/C (second compound 0.0316 µM, first compound 0.1 µM): 13.9%
viability, T/C (second compound 0.0316 µM, first compound 0.316 µM): 11.7%
viability, T/C (second compound 0.0316 µM, first compound 1 µM): 15.9%
viability, T/C (second compound 0.0316 µM, first compound 3.16 µM): 3.17%
viability, T/C (second compound 0.0316 µM, first compound 10 µM): 2.7%
viability, T/C (second compound 0.1 µM, first compound 0.0316 µM): 10.3%
viability, T/C (second compound 0.1 µM, first compound 0.1 µM): 12%
viability, T/C (second compound 0.1 µM, first compound 0.316 µM): 12.8%
viability, T/C (second compound 0.1 µM, first compound 1 µM): 13.7%
viability, T/C (second compound 0.1 µM, first compound 3.16 µM): 3.12%
viability, T/C (second compound 0.1 µM, first compound 10 µM): 2.45%
viability, T/C (second compound 0.316 µM, first compound 0.0316 µM): 11.8%
viability, T/C (second compound 0.316 µM, first compound 0.1 µM): 14%
viability, T/C (second compound 0.316 µM, first compound 0.316 µM): 12%
viability, T/C (second compound 0.316 µM, first compound 1 µM): 17.7%
viability, T/C (second compound 0.316 µM, first compound 3.16 µM): 2.62%
viability, T/C (second compound 0.316 µM, first compound 10 µM): 3.41%
viability, T/C (second compound 1 µM, first compound 0.0316 µM): 10.5%
viability, T/C (second compound 1 µM, first compound 0.1 µM): 13.1%
viability, T/C (second compound 1 µM, first compound 0.316 µM): 15.1%
viability, T/C (second compound 1 µM, first compound 1 µM): 14.7%
viability, T/C (second compound 1 µM, first compound 3.16 µM): 3.95%
viability, T/C (second compound 1 µM, first compound 10 µM): 4.47%
